Data: ChEMBL document CHEMBL5352434, “Design, synthesis, and biological evaluation of ocotillol derivatives fused with 2-aminothiazole via A-ring as modulators of P-glycoprotein-mediated multidrug resistance” (Eur J Med Chem, 2022)
Active and inactive are the calls of the source. The calls are words filed in the database; no cut-off is given here.

Assays:
[1] = Cytotoxicity against multi-drug resistance human KBV cells assessed as cell survival rate at 5 uM incubated for 72 hrs by MTT assay; type: functional; details: read-out: Survival
[2] = Cytotoxicity against multi-drug resistance human KBV cells assessed as cell survival rate at 5 uM in presence of 100 nM Paclitaxel incubated for 72 hrs by MTT assay; type: functional; details: read-out: Survival
[3] = Cytotoxicity against multi-drug resistance human KBV cells assessed as cell survival rate at 10 uM incubated for 72 hrs by MTT assay; type: functional; details: read-out: Survival
[4] = Cytotoxicity against multi-drug resistance human KBV cells assessed as cell survival rate at 10 uM in presence of 100 nM Paclitaxel incubated for 72 hrs by MTT assay; type: functional; details: read-out: Survival
[5] = Cytotoxicity against multi-drug resistance human KBV cells assessed as cell survival incubated for 72 hrs by MTT assay; type: functional, cell-based
[6] = Cytotoxicity against multi-drug resistance human KBV cells assessed as cell survival in presence of 5 uM (20S,24R)-Epoxy-3-beta-N-glycyl-[3,2-b]thiazole-dammarane-12-beta,25-diol incubated for 72 hrs by MTT assay; type: functional, cell-based
[7] = Cytotoxicity against multi-drug resistance human KBV cells assessed as cell survival in presence of 10 uM (20S,24R)-Epoxy-3-beta-N-glycyl-[3,2-b]thiazole-dammarane-12-beta,25-diol incubated for 72 hrs by MTT assay; type: functional, cell-based
[8] = Cytotoxicity against multi-drug resistance human KBV cells assessed as cell survival in presence of Verapamil incubated for 72 hrs by MTT assay; type: functional, cell-based
[9] = Cytotoxicity against multi-drug resistance human KBV cells assessed as cell survival in presence of Tariquidar incubated for 72 hrs by MTT assay; type: functional, cell-based
KBV = experiment: Antitumor activity against human MDR KBV cells xenografted in BALB/c nude mouse assessed as change in tumor volume at 30 mg/kg every 3 days for 18 days; type: functional, organism-based; details: time 18.0 day
[10] = Toxicity in BALB/c nude mouse xenografted with human MDR KBV cells assessed as change in body weight administered at 30 mg/kg every 3 days for 18 days; type: organism-based; details: in vivo, 432 h, time 18 day

Row | Compound | viability at 5 µM [1] [%] | viability at 5 µM [2] [%] | viability at 10 µM [3] [%] | viability at 10 µM [4] [%] | IC50 [5] [nM] | IC50 [6] [nM] | IC50 [7] [nM] | IC50 [8] [nM] | IC50 [9] [nM] | Activity (KBV) | Activity [10]
1 | CC(C)[C@H](N)C(=O)Nc1nc2c(s1)C[C@]1(C)[C@H]3C[C@@H](O)[C@H]4[C@@H]([C@]5(C)CC[C@H](C(C)(C)O)O5)CC[C@@]4(C)[C@]3(C)CC[C@H]1C2(C)C | 95.2 | 91.6 | 92.7 | 54.2 | – | – | – | – | – | – | –
2 | CC(C)(O)[C@@H]1CC[C@@](C)([C@H]2CC[C@]3(C)[C@@H]2[C@H](O)C[C@@H]2[C@@]4(C)Cc5sc(NC(=O)[C@H](N)Cc6ccccc6)nc5C(C)(C)[C@@H]4CC[C@]23C)O1 | 103 | 101 | 96 | 50.2 | – | – | – | – | – | – | –
3 | CC(C)(O)[C@H]1CC[C@@](C)([C@H]2CC[C@]3(C)[C@@H]2[C@H](O)C[C@@H]2[C@@]4(C)Cc5sc(NC(=O)CCCCCCCCCCN)nc5C(C)(C)[C@@H]4CC[C@]23C)O1 | 43.6 | 17.5 | 12.4 | 11.4 | – | – | – | – | – | – | –
4 | CC(C)(O)[C@H]1CC[C@@](C)([C@H]2CC[C@]3(C)[C@@H]2[C@H](O)C[C@@H]2[C@@]4(C)Cc5sc(NC(=O)CCCCCN)nc5C(C)(C)[C@@H]4CC[C@]23C)O1 | 35.3 | 21.6 | 30.3 | 12.5 | – | – | – | – | – | – | –
5 | CC(=O)O[C@H]1C(=O)[C@@]2(C)[C@H]([C@H](OC(=O)c3ccccc3)[C@]3(O)C[C@H](OC(=O)[C@H](O)[C@@H](NC(=O)c4ccccc4)c4ccccc4)C(C)=C1C3(C)C)[C@]1(OC(C)=O)CO[C@@H]1C[C@@H]2O [PACLITAXEL] | – | – | – | 99.3 | 788 | 58.5 | 2.17 | 9.66 | 2.16 | inactive | Non-Toxic
6 | CC(C)(O)[C@@H]1CC[C@@](C)([C@H]2CC[C@]3(C)[C@@H]2[C@H](O)C[C@@H]2[C@@]4(C)Cc5sc(NC(=O)CCCCCCCN)nc5C(C)(C)[C@@H]4CC[C@]23C)O1 | 44.7 | 29 | 16.5 | 17.3 | – | – | – | – | – | – | –
7 | CC(C)(O)[C@@H]1CC[C@@](C)([C@H]2CC[C@]3(C)[C@@H]2[C@H](O)C[C@@H]2[C@@]4(C)Cc5sc(NC(=O)[C@H]6CCCN6)nc5C(C)(C)[C@@H]4CC[C@]23C)O1 | 94.6 | 69.8 | 93.3 | 48.1 | – | – | – | – | – | – | –
8 | CC(C)(O)[C@H]1CC[C@@](C)([C@H]2CC[C@]3(C)[C@H]2[C@H](O)C[C@@H]2[C@@]4(C)Cc5sc(NC(=O)[C@H](N)Cc6c[nH]c7ccccc67)nc5C(C)(C)[C@@H]4CC[C@]23C)O1 | 91.9 | 69.5 | 93.9 | 55.6 | – | – | – | – | – | – | –
9 | CC(C)(O)[C@H]1CC[C@@](C)([C@H]2CC[C@]3(C)[C@@H]2[C@H](O)C[C@@H]2[C@@]4(C)Cc5sc(NC(=O)[C@H](N)Cc6ccccc6)nc5C(C)(C)[C@@H]4CC[C@]23C)O1 | 100 | 54.1 | 101 | 39.1 | – | – | – | – | – | – | –
10 | CC(C)C[C@H](N)C(=O)Nc1nc2c(s1)C[C@]1(C)[C@H]3C[C@@H](O)[C@@H]4[C@@H]([C@]5(C)CC[C@@H](C(C)(C)O)O5)CC[C@@]4(C)[C@]3(C)CC[C@H]1C2(C)C | 89.3 | 71.8 | 98.1 | 50.9 | – | – | – | – | – | – | –
11 | CC(C)(O)[C@@H]1CC[C@@](C)([C@H]2CC[C@]3(C)[C@@H]2[C@H](O)C[C@@H]2[C@@]4(C)Cc5sc(NC(=O)CN)nc5C(C)(C)[C@@H]4CC[C@]23C)O1 | 94.6 | 59.4 | 65.4 | 30.2 | – | – | – | – | – | – | –
12 | CC(C)(O)[C@H]1CC[C@@](C)([C@H]2CC[C@]3(C)[C@@H]2[C@H](O)C[C@@H]2[C@@]4(C)Cc5sc(NC(=O)[C@H]6CCCN6)nc5C(C)(C)[C@@H]4CC[C@]23C)O1 | 84.1 | 39.5 | 59.5 | 22.9 | – | – | – | – | – | – | –
13 | CC(C)C[C@H](N)C(=O)Nc1nc2c(s1)C[C@]1(C)[C@H]3C[C@@H](O)[C@H]4[C@@H]([C@]5(C)CC[C@H](C(C)(C)O)O5)CC[C@@]4(C)[C@]3(C)CC[C@H]1C2(C)C | 92.8 | 90.4 | 89 | 32.6 | – | – | – | – | – | – | –
14 | CC(C)(O)[C@@H]1CC[C@@](C)([C@H]2CC[C@]3(C)[C@@H]2[C@H](O)C[C@@H]2[C@@]4(C)Cc5sc(NC(=O)CCCN)nc5C(C)(C)[C@@H]4CC[C@]23C)O1 | 106 | 90 | 67.2 | 57 | – | – | – | – | – | – | –
15 | O=C1c2c(O)ccc(O)c2C(=O)c2c(NCCNCCO)ccc(NCCNCCO)c21 [MITOXANTRONE] | – | – | – | – | 299 | 165 | 61.9 | 97.5 | 90 | – | –
16 | CC(C)(O)[C@H]1CC[C@@](C)([C@H]2CC[C@]3(C)[C@@H]2[C@H](O)C[C@@H]2[C@@]4(C)Cc5sc(N)nc5C(C)(C)[C@@H]4CC[C@]23C)O1 | 104 | 33.7 | 73.9 | 18.2 | – | – | – | – | – | – | –
17 | CC(C)(O)[C@H]1CC[C@@](C)([C@H]2CC[C@]3(C)[C@@H]2[C@H](O)C[C@@H]2[C@@]4(C)Cc5sc(NC(=O)CCCCCCCN)nc5C(C)(C)[C@@H]4CC[C@]23C)O1 | 38.3 | 23.6 | 23.5 | 15 | – | – | – | – | – | – | –
18 | C[C@H](N)C(=O)Nc1nc2c(s1)C[C@]1(C)[C@H]3C[C@@H](O)[C@@H]4[C@@H]([C@]5(C)CC[C@H](C(C)(C)O)O5)CC[C@@]4(C)[C@]3(C)CC[C@H]1C2(C)C | 91.4 | 67.3 | 103 | 41 | – | – | – | – | – | – | –
19 | C[C@H](N)C(=O)Nc1nc2c(s1)C[C@]1(C)[C@H]3C[C@@H](O)[C@@H]4[C@@H]([C@]5(C)CC[C@@H](C(C)(C)O)O5)CC[C@@]4(C)[C@]3(C)CC[C@H]1C2(C)C | 95.7 | 77.4 | 97.4 | 46 | – | – | – | – | – | – | –
20 | CC(C)(O)[C@@H]1CC[C@@](C)([C@H]2CC[C@]3(C)[C@@H]2[C@H](O)C[C@@H]2[C@@]4(C)Cc5sc(NC(=O)CCCCCN)nc5C(C)(C)[C@@H]4CC[C@]23C)O1 | 93.5 | 72.2 | 72.2 | 67.2 | – | – | – | – | – | – | –
21 | CC(C)(O)[C@@H]1CC[C@@](C)([C@H]2CC[C@]3(C)[C@@H]2[C@H](O)C[C@@H]2[C@@]4(C)Cc5sc(NC(=O)[C@H](N)Cc6c[nH]c7ccccc67)nc5C(C)(C)[C@@H]4CC[C@]23C)O1 | 92.8 | 94.4 | 95.7 | 76.3 | – | – | – | – | – | – | –
22 | CC(C)[C@H](N)C(=O)Nc1nc2c(s1)C[C@]1(C)[C@H]3C[C@@H](O)[C@H]4[C@@H]([C@]5(C)CC[C@@H](C(C)(C)O)O5)CC[C@@]4(C)[C@]3(C)CC[C@@]1(O)C2(C)C | 92.5 | 98.6 | 100 | 90.7 | – | – | – | – | – | – | –
23 | CC(C)(O)[C@H]1CC[C@@](C)([C@H]2CC[C@]3(C)[C@@H]2[C@H](O)C[C@@H]2[C@@]4(C)CC[C@H](O)C(C)(C)[C@@H]4CC[C@]23C)O1 | – | – | – | 86.6 | – | – | – | – | – | – | –
24 | CC[C@]1(O)C[C@H]2CN(CCc3c([nH]c4ccccc34)[C@@](C(=O)OC)(c3cc4c(cc3OC)N(C=O)[C@H]3[C@@](O)(C(=O)OC)[C@H](OC(C)=O)[C@]5(CC)C=CCN6CC[C@]43[C@@H]65)C2)C1 [VINCRISTINE] | – | – | – | – | 559 | 13.7 | 1.18 | 1.63 | 1.5 | – | –
25 | CC(C)(O)[C@@H]1CC[C@@](C)([C@H]2CC[C@]3(C)[C@@H]2[C@H](O)C[C@@H]2[C@@]4(C)Cc5sc(N)nc5C(C)(C)[C@@H]4CC[C@]23C)O1 | 112 | 68.7 | 80.6 | 48.6 | – | – | – | – | – | – | –
26 | CC(C)(O)[C@@H]1CC[C@@](C)([C@H]2CC[C@]3(C)[C@@H]2[C@H](O)C[C@@H]2[C@@]4(C)Cc5sc(NC(=O)CCCCCCCCCCN)nc5C(C)(C)[C@@H]4CC[C@]23C)O1 | 18.4 | 18.1 | 17.5 | 16.4 | – | – | – | – | – | – | –
27 | CC(C)(O)[C@H]1CC[C@@](C)([C@H]2CC[C@]3(C)[C@@H]2[C@H](O)C[C@@H]2[C@@]4(C)Cc5sc(NC(=O)CCCN)nc5C(C)(C)[C@@H]4CC[C@]23C)O1 | 34.7 | 19.8 | 14.9 | 12.6 | – | – | – | – | – | – | –
28 | CC(C)(O)[C@@H]1CC[C@@](C)([C@H]2CC[C@]3(C)[C@@H]2[C@H](O)C[C@@H]2[C@@]4(C)CC[C@H](O)C(C)(C)[C@@H]4CC[C@]23C)O1 | – | – | – | 86.5 | – | – | – | – | – | – | –
